Measurements taken from patent publication US12533373B2, “β-glucan composition and use therefor” (Qingdao Conson Pharmaceutical Co., Ltd., priority 2019, dated 2026).
Several values for one entry are separate records, joined by “and”; a condition that tells them apart may be missing. Equal entries are not always repeated.

How the values were obtained:
[1] = tested on: SW-480 human colon cancer transplanted tumors; assay: nude mice transplanted tumor model, SW-480; format: in vivo, BALB/c nude mice; details: 5-FU 18 mg/kg, tail vein, twice a week
Procedure: The […] was resuscitated with liquid nitrogen and cultured in 5A medium containing 10% fetal bovine serum; the cells were expanded and cultured in culture flasks and collected by digestion after reaching the required cells number; the cells were diluted using 5A medium containing 10% fetal bovine serum into suspensions of 250 million cell/ml which was inoculated subcutaneously to the axilla of the right forelimb of each mouse with 0.2 ml per mouse after routine sterilization. When growing to tumors to about 1 g of tissue mass, the animal was sacrificed and the tumor was cut into 2-3 cubic millimeter pieces and implanted subcutaneously into nude mice for passaging by catheter method, and two consecutive passages were performed. HT-29, SW-480, DLD-1 and RKO cell lines listed in the table were modeled and experimented using the same method. Waiting for the tumors of the passaged tumor-bearing nude mice grown to about 1 g, the tumors were transplanted for modeling via the method described above, and the animals were randomly grouped and administration was started on the next day after transplantation.
The animals were grouped using the random grouping method, 8 animals each group.
The route of administration is via tail vein injection, and the amount of administration for each animal was determined based on the latest body weight prior to administration. […]

[2] = tested on: Mouse lung cancer Lewis cells; assay: mouse Lewis lung cancer residual cancer model; format: in vivo, C57BL/6 mice; details: 5-FU 18 mg/kg
Procedure: Mouse lung cancer Lewis cells were amplified by culturing in DMEM high sugar medium containing 10% FBS. The cells were ready for the next step when entering the logarithmic growth phase. The cells at logarithmic growth phase were collected by centrifugation and counted. The cell concentration was adjusted and inoculated subcutaneously at 0.2 ml/mouse in the right axilla of C57BL/6 mice as breeder mouse. After grew to over 1000 mm^3, the tumors were removed aseptically, weighed, diluted by adding sodium chloride injection with mass to volume ratio of 1:4 and […], after conventional sterilization, inoculated subcutaneously to the axilla of the right forelimb of each mouse with 0.2 ml per mouse for passaging. After grew to over 1000 mm^3, the second generation tumors were taken aseptically, weighed, diluted by adding sodium chloride injection with mass to volume ratio of 1:4 and ground, and then inoculated subcutaneously to the back of mice at 0.2 ml per mouse after routine sterilization. The growths of mice were observed after inoculation, and screened according to the growth state of mice, and after screening, the mice were grouped randomly and administered.

[3] = tested on: S180 mouse fibrosarcoma cells; assay: murine S180 sarcoma residual carcinoma model; format: in vivo, Kunming mice; details: 5-FU 18 mg/kg
Procedure: S180 mouse fibrosarcoma cells were amplified by culturing in DMEM high sugar medium containing 10% FBS. The cells were ready for the next step when entering the logarithmic growth phase. The cells at logarithmic growth phase were collected by centrifugation and counted. The cell concentration was adjusted, and inoculated at 0.2 ml/mouse into the peritoneal cavity of Kunming mice as the first-generation breeder mouse. After rearing for one week, the ascites in peritoneal cavity of the first-generation breeder mouse were taken for centrifugation and count, the cell concentration was adjusted, and inoculated at 0.2 ml/mouse into the peritoneal cavity of Kunming mice as the second-generation breeder mouse, and after rearing for another week, the ascites in peritoneal cavity of the second-generation breeder mouse were taken for centrifugation and count, the cell concentration was adjusted, and inoculated at 0.2 ml/mouse into subcutaneous back of Kunming mice. The whole inoculation process was carried out aseptically in the ultra-clean workstation. After inoculation, the growth of mice was observed, and the mice were screened according to their growth state, and after screening, the mice were grouped randomly and administered.

## O=c1[nH]cc(F)c(=O)[nH]1 [Example 5-FU, Fluorouracil]
[1]
  Inhibition rate: 57.91%
  Tumor weight: 0.43 g
[2]
  Tumor weight: 1.29 g and 1.24 g
[3]
  Inhibition rate: 85.30% and 66.85%
